Our source for the atherosclerotic lesion formation and IC50 values is patent publication US8362249B2, “CXCR3 receptor antagonists” (Boehringer Ingelheim International GmbH, priority 2009, dated 2013).

Chain of CXCR3 (A0A2K5UV19 entry or part of it): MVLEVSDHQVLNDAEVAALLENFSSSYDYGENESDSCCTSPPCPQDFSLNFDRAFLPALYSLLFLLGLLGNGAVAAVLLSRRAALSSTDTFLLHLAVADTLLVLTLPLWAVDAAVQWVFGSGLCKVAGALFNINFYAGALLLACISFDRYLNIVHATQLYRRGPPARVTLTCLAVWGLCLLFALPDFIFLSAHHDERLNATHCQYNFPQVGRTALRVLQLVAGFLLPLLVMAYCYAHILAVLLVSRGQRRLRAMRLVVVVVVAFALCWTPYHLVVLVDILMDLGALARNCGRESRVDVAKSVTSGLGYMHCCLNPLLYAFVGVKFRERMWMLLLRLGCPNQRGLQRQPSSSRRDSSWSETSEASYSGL

For one assay, the system named is LDL receptor knockout model.
Assay: not given
To be noted: dosed prophylactically; cited from earlier work.
Consider `CCOc1ccc(-n2c(C(C)N(Cc3cccnc3)C(=O)Cc3ccc(F)c(C(F)(F)F)c3)nc3ncccc3c2=O)cc1` (centres unmarked) [NBI-74330], for which the atherosclerotic lesion formation entry is listed as “significantly attenuated atherosclerotic lesion formation”.

A further assay has as its target CXCR3 (Macaca fascicularis, UniProt A0A2K5UV19). As to the kind of experiment: functional cellular assay measuring calcium flux in CXCR3 transfected cells (block of CXCR3/IP-10 interaction). The format is cell-based. To be noted: IP-10 induced intracellular calcium flux; Cyno-CHO cells stably expressing recombinant CXCR3 and G-alpha-16. In a few lines: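 Cyno-CHO cells stably co-expressing recombinant CXCR3 and G-alpha-16, loaded with Ca-4 dye (HBSS, 10 mM HEPES pH 7.4, 2 mM probenecid) for 1 h at 37 °C. Compound (10 microM final) preincubated 15 min at room temperature, then IP-10 added at EC80. Intracellular calcium flux read by fluorescence (ex 480/em 540 nm).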
A general note: A change in cytosolic calcium serves as a functional read-out for many receptors and channels.
The term IC50 denotes the concentration that gives 50% inhibition. On to `O=C(Nc1ccncc1)c1ccccc1N1CCN(C(=O)CN2C(=O)c3ccccc3C2=O)CC1` [2-{4-[2-(1,3-Dioxo-1,3-dihydro-isoindol-2-yl)-acetyl]-piperazin-1-yl}-N-pyridin-4-yl-benzamide], for which the IC50 amounted to 6.1 nM.

As for `Cc1cc(C)n(CC(=O)N2CCN(c3ccccc3C(=O)Nc3nc4ccc(S(C)(=O)=O)cc4s3)CC2)n1` [2-{4-[2-(3,5-Dimethyl-pyrazol-1-yl)-acetyl]-piperazin-1-yl}-N-(6-methanesulfonyl-benzothiazol-2-yl)-benzamide], the IC50 was 6.6 nM.

Turning to `O=C(Nc1ccncc1)c1ccccc1N1CCN(C(=O)Cn2cnc3ccccc3c2=O)CC1` [2-{4-[2-(4-Oxo-4H-quinazolin-3-yl)-acetyl]-piperazin-1-yl}-N-pyridin-4-yl-benzamide], the IC50 is 3.4 nM.

`Cc1cc(C)n(CC(=O)N2CCN(c3ccccc3C(=O)Nc3cccc(Cl)c3)CC2)n1` [N-(3-Chloro-phenyl)-2-{4-[2-(3,5-dimethyl-pyrazol-1-yl)-acetyl]-piperazin-1-yl}-benzamide]: the IC50 was found to be 3.3 nM.

Consider `Cc1cc(C)n(CC(=O)N2CCN(c3ccccc3C(=O)Nc3cnc4c(c3)c(=O)n(C)c(=O)n4C)CC2)n1` [N-(1,3-Dimethyl-2,4-dioxo-1,2,3,4-tetrahydro-pyrido[2,3-d]pyrimidin-6-yl)-2-{4-[2-(3,5-dimethyl-pyrazol-1-yl)-acetyl]-piperazin-1-yl}-benzamide], for which the IC50 worked out at 11.5 nM.

As for `Cc1cc(C)n(CC(=O)N2CCN(c3ccccc3C(=O)Nc3ccccc3)CC2)n1` [2-{4-[2-(3,5-Dimethyl-pyrazol-1-yl)-acetyl]-piperazin-1-yl}-N-phenyl-benzamide], the IC50 was 13 nM.

`Cn1cccc1C(=O)NCC(=O)N1CCN(c2ccccc2C(=O)Nc2ccncc2)CC1` [1-Methyl-1H-pyrrole-2-carboxylic acid (2-oxo-2-{4-[2-(pyridin-4-ylcarbamoyl)-phenyl]-piperazin-1-yl}-ethyl)-amide]: the 50% inhibitory concentration (IC50) was 4.2 nM.
